The source of these data is US20250058024A1, “INJECTABLE TOUGH AND VISCOELASTIC BTA HYDROGEL” (UNIVERSITEIT MAASTRICHT, priority 2021, published 2025).

The conditions of data set [1]: cited from earlier work.
A short description of data set [2]: Storage and handling stability of activated ester synthons. Format: physicochemical. To be noted: for stability on handling in the lab: open handling in the lab, humid environment, 1H NMR. The source says: With the knowledge of proton chemical shift and peak splitting pattern of products, we were able to analyse the crude reaction mixtures and quickly determine the relative amount of the products in the reaction mixture. Molecule 1 produced a 57% yield of 5 (monosubstituted) when treated with 1.0 equiv nucleophile. The desymmetrization of 2 behaved similarly, and after separation and characterization the crude reaction mixture produced a 38% yield of 6 (monosubstituted derivative). […] When the same reaction was run for two equivalents of hexylamine, 1 produced 7 (disubstituted) in 48% yield and 2 produced 8 in 54% yield. […] With promising results, we then turned to desymmetrization of the penta-fluorophenol synthon, 3. […] After ^1H NMR analysis, we were able to determine the ratio of substituted derivatives in the crude reaction mixture (a similar pattern of doublet/triplets and singlets was observed as in the desymmetrization of 1). […] Both desymmetrization reactions yielded higher than statisctical yields and the products were able to be readily isolated via column chromatography. When developing a reactive synthon for desymmetrization, stability and scalability are also important factors to consider. […] Purification of 1 and 2 required a large volume of solvents owing to limited solubility (100s of mL for 10s of mg), while 3 offered a short one-step work up with good solubility.
Due to its ease of synthesis, stability, desymmetrization, and purification, 3 was determined to be the best candidate to work with moving forward. […] Furthermore, the stability of the F5Ph esters on 3 also offers easy separation of desymmetrized intermediates using flash column chromatography.
In order to test the applicability of the reaction methodology to different amine based neuclopehiles/side-arms, we attempted a few different amines. […] (Scheme 3).

[3] abbreviates: under an inert (and dry) atmosphere.

Regarding `Oc1c(F)c(F)c(F)c(F)c1F` [2,3,4,5,6-pentafluorophenol], in data set [1], the pka is 5.4.

Turning to `O=[N+]([O-])c1cccc(O)c1` [3-nitrophenol], in data set [1], the pka was 8.36.

For `O=C1CCC(=O)N1O` [N-hydroxy succinimide], the pka in data set [1] is listed as 6.0.

In the case of `O=C(Oc1cccc([N+](=O)[O-])c1)c1cc(C(=O)Oc2cccc([N+](=O)[O-])c2)cc(C(=O)Oc2cccc([N+](=O)[O-])c2)c1` [compound 1], in data set [2] (in a desiccator), the stability on storage result is given as “stable in a desiccator when stored for a year”. The “stability on handling in the lab” value in data set [2] is listed as “started to hydrolyze”.

As to `O=C(Oc1ccc([N+](=O)[O-])cc1)c1cc(C(=O)Oc2ccc([N+](=O)[O-])cc2)cc(C(=O)Oc2ccc([N+](=O)[O-])cc2)c1` [compound 2], the stability on storage result in data set [2] (in a desiccator) is listed as “stable in a desiccator when stored for a year”. Also, the “stability on handling in the lab” value in data set [2] is listed as “started to hydrolyze”.

As for `O=C(Oc1c(F)c(F)c(F)c(F)c1F)c1cc(C(=O)Oc2c(F)c(F)c(F)c(F)c2F)cc(C(=O)Oc2c(F)c(F)c(F)c(F)c2F)c1` [compound 3, 1,3,5-benzenetricarbonylpentafluoroester], the “stability on handling in the lab” value in data set [2] is reported as “stable for more than two years”. In addition, the stability on storage result in data set [2] (setting [3]) is recorded as “stable over years”.

For `CCCCCCNC(=O)c1cc(C(=O)Oc2c(F)c(F)c(F)c(F)c2F)cc(C(=O)Oc2c(F)c(F)c(F)c(F)c2F)c1` [compound 9], the stability on storage result in data set [2] (setting [3]) is “stable over months”.

As to `CCCCCCNC(=O)c1cc(C(=O)NCCCCCC)cc(C(=O)Oc2c(F)c(F)c(F)c(F)c2F)c1` [compound 10], the stability on storage result in data set [2] (setting [3]) is “stable over months”.
